Activity calls are given as the source filed them. The calls are words filed in the database; no cut-off is given here.
Experiments:
[1] = Cytotoxicity against mock-infected human MT4 cells after 5 days by MTT assay; assay type: cell-based
[2] = biological target: Human immunodeficiency virus type 1 integrase (Human immunodeficiency virus 1, UniProt Q7ZJM1); assay: Inhibition of HIV1 integrase
[3] = biological target: Human immunodeficiency virus type 1 reverse transcriptase (Human immunodeficiency virus 1, UniProt Q72547); assay: Inhibition of wild-type HIV1 Reverse transcriptase p66/p51 assessed as relative fluorescence signal after 40 mins
[4] = Selectivity index, ratio of CC50 for mock-infected human MT4 cells to EC50 for HIV1 3B infected in human MT4 cells; assay type: toxicity, cell-based; details: mock-infected (CC50) and HIV1 3B infected (EC50)
[5] = biological target: Human immunodeficiency virus type 1 reverse transcriptase (Human immunodeficiency virus 1) (UniProt Q72547); assay: Inhibition of wild-type HIV1 Reverse transcriptase p66/p51 assessed as fluorescence signal by time-of-addition assay
[6] = system: Human immunodeficiency virus 1; assay: Antiviral activity against wild-type HIV1 3B infected in human MT4 cells assessed as protection of cells from virus-induced cytopathic after 5 days by MTT assay; assay type: functional, organism-based; details: Human immunodeficiency virus 1, 3B, MT4, 120 h
[7] = system: Human immunodeficiency virus 1; assay: Antiviral activity against HIV1 harboring K103N/Y181C double mutant infected in human MT4 cells assessed as protection of cells from virus-induced cytopathic after 5 days by MTT assay; assay type: functional, organism-based; details: Human immunodeficiency virus 1, MT4, 120 h

Human immunodeficiency virus type 1 integrase, sequence (Q7ZJM1 whole entry): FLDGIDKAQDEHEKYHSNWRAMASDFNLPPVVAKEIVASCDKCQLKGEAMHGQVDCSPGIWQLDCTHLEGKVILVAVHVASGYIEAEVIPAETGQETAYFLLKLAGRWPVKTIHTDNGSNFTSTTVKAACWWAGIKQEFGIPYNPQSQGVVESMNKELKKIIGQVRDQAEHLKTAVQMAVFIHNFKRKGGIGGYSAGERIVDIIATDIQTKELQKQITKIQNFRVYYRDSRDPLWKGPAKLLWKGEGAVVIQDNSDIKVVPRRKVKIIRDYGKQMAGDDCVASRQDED

SMILES	CC50 at 120 h [1]	IC50 [2]	IC50 [3]	selectivity ratio [4]	inhibition [5]	EC50 [6]	EC50 [7]
CCCCn1cc(C(=O)O)c(=O)c2ccc(Oc3ccnc(Nc4ccc(C#N)cc4)n3)cc21	≥ 199 µM	32.5 µM	3.49 µM	≥ 604	Active	330 nM	> 199 µM
CCn1cc(C(=O)O)c(=O)c2ccc(Nc3ccnc(Nc4ccc(C#N)cc4)n3)cc21	123 µM		7.07 µM	< 1		> 123000 nM	> 123 µM
N#Cc1ccc(Nc2nccc(Oc3ccc4c(=O)c(C(=O)O)cn(C5CCCCC5)c4c3)n2)cc1	3.22 µM			< 1		> 3220 nM	> 3.22 µM
CCCCn1cc(C(=O)O)c(=O)c2ccc(Nc3ccnc(Nc4ccc(C#N)cc4)n3)cc21	13.6 µM			< 1		> 13600 nM	> 13.6 µM
N#Cc1ccc(Nc2nccc(Nc3ccc4c(=O)c(C(=O)O)cn(C5CCCCC5)c4c3)n2)cc1	2.18 µM			< 1		> 2180 nM	> 2.18 µM
CC(C)n1cc(C(=O)O)c(=O)c2ccc(Nc3ccnc(Nc4ccc(C#N)cc4)n3)cc21	10.9 µM			< 1		> 10900 nM	> 10.9 µM
CCCn1cc(C(=O)O)c(=O)c2ccc(Nc3ccnc(Nc4ccc(C#N)cc4)n3)cc21	189 µM			< 1		> 189000 nM	> 189 µM
Cc1ccnc2c1NC(=O)c1cccnc1N2C1CC1 [NEVIRAPINE]	> 15 µM					244 nM	≥ 11 µM
COc1cc2c(cc1Cc1cccc(Cl)c1F)c(=O)c(C(=O)O)cn2[C@H](CO)C(C)C	4.6 µM					3.1 nM	0.0022 µM
CC(C)Cn1cc(C(=O)O)c(=O)c2ccc(Oc3ccnc(Nc4ccc(C#N)cc4)n3)cc21	> 274 µM		14 µM	> 237	Active	1160 nM	> 274 µM
CCCn1cc(C(=O)O)c(=O)c2ccc(Oc3ccnc(Nc4ccc(C#N)cc4)n3)cc21	245 µM		9.12 µM	≤ 569		≥ 430 nM	> 245 µM
Cc1cc(C#N)cc(C)c1Oc1nc(Nc2ccc(C#N)cc2)nc(N)c1Br [ETRAVIRINE]	14.2 µM					1.9 nM	0.014 µM
Cc1cn([C@H]2C[C@H](N=[N+]=[N-])[C@@H](CO)O2)c(=O)[nH]c1=O [ZIDOVUDINE]	> 94 µM			16800		5.6 nM	0.0052 µM
N#Cc1ccc(Nc2nccc(Oc3ccc4c(=O)c(C(=O)O)cn(C5CCCC5)c4c3)n2)cc1	4.96 µM		6.08 µM	5		980 nM	> 4.96 µM
CCC(C)n1cc(C(=O)O)c(=O)c2ccc(Oc3ccnc(Nc4ccc(C#N)cc4)n3)cc21 (stereo unspecified)	> 274 µM			1		> 274000 nM	> 274 µM
CCn1cc(C(=O)O)c(=O)c2ccc(Oc3ccnc(Nc4ccc(C#N)cc4)n3)cc21	246 µM		7.15 µM	880	Active	280 nM	> 246 µM
N#Cc1ccc(Nc2nccc(Oc3ccc4c(=O)c(C(=O)O)cn(C5CC5)c4c3)n2)cc1	≥ 221 µM			≤ 1		> 221000 nM	> 221 µM
CC(C)n1cc(C(=O)O)c(=O)c2ccc(Oc3ccnc(Nc4ccc(C#N)cc4)n3)cc21	> 283 µM			1		> 283000 nM	> 283 µM
O=C1Nc2ccc(Cl)cc2[C@@](C#CC2CC2)(C(F)(F)F)O1 [EFAVIRENZ]	> 6.5 µM						0.14 µM
